In patent US20170027902A1, “Use of a Composition Comprising a Flavonol, A Flavonoid, and a Fatty Acid in the Treatment of Oxidative Injuries Due to Mitochondrial Dysfunction” (priority 2014, published 2017):

Experiments:
[1] = test system: primary mouse cortical cultures; assay: Confocal imaging of calcium transients and mitochondrial membrane potential; type: cell-based; details: for number of neurons displaying elevated [Ca2+]c / oscillations: 3 μg/ml (~10 μM); for number / frequency of [Ca2+]c oscillations in cortical neurons: Q 3 μg/ml added after pretreatment with E 3 μg/ml
Description: Embryonic day 16 timed pregnant CD1 out-bred mice were obtained from Charles River Laboratories (Charles River; QC, Canada). Primary cortical neuron cultures were prepared from cerebral cortices of wild type (WT) CD1 mouse embryos as described previously, with the following modifications. Pregnant CD1 females were heavily anaesthetized with isoflurane vapor (Benson Medical Industries, Inc., Markham, ON) before being euthanized by decapitation. The embryonic day 16 (E16) fetuses were immediately removed from the sacrificed pregnant females by cesarean section and placed in ice-cold Hank's Balanced Salt Solution (HBSS) (GIBCO; Invitrogen, Amarillo, Calif.). The meninges were removed from the brains and cortices were isolated under a dissecting microscope. The cortices from each embryo were placed in individual wells of a 24-well plate (Corning; Lowell, Mass.), containing 1 ml of ice-cold PBS (GIBCO; […] Under sterile conditions, the tissue was briefly minced, transferred to 15 ml sterile conical tubes (Corning; Lowell, Mass.) and centrifuged at 350×g for 3 min at room temperature. The dissecting solution was discarded and the cortical neurons were then dissociated trituration with fire-polished glass pipettes followed by incubating in 1 ml of 0.1% trypsin solution (0.1% w/v trypsin (Invitrogen, Amarillo, Calif.) in PBS with 1 mM Mg^2+ and 13 mM glucose) at 37° C. for 15 min. The trypsinization was inhibited by the addition of 0.5 ml of trypsin inhibitor solution that also contained DNase I (0.06% w/v trypsin inhibitor (Invitrogen; Amarillo, Calif.) and 0.01% DNase I (Invitrogen; […] The tubes were mixed briefly and the cells were centrifuged at 350×g for 3 min at room temperature. The trypsin and inhibitor solutions were discarded and each cell pellet was suspended in 1 ml of cortical neuron plating medium (Neurobasal medium (Invitrogen, Amarillo, Calif.) with 10% fetal bovine serum (GIBCO; Invitrogen; Amarillo, Calif.), 2% B27 supplement, 1 mM L-glutamine, and 1% Gentamycin (Invitrogen; […] Cortical neurons were plated in 96-well plates (Corning; Lowell, Mass.) that were pre-coated with poly-D-lysine (PDL; Sigma-Aldrich; Oakville, ON) according to the procedure described by the manufacturer. Briefly, plates were coated immediately before use with 100 μg/ml PDL for 5-10 min (50 μl/well), washed three times with tissue-culture grade water and left to dry for 2 h before cells were introduced. Cortical neurons were plated at a concentration of 1×10^6 cells/ml (100 µl/well) and medium was completely changed the day after plating to serum-free cortical neuron medium (Neurobasal medium with 2% B27 supplement, 5 mM HEPES, 0.5 mM L-glutamine, and 20 μg/ml Gentamycin), which was replaced every 3 days in culture. Cultures were maintained in a humidified, 37° C. incubator with 5% CO2. Experiments were performed on the eighth day in vitro (DIV10). For measurements of mitochondrial membrane potential (ΔΨm), cells were loaded with 25 nM tetrannethylrhodamine methyl ester (TMRM) for 30 min at room temperature and the dye was present during the experiment. TMRM is used in the redistribution mode to assess ΔΨm with a reduction in TMRM fluorescence indicating mitochondrial depolarization. Neurons were loaded for 30 min at room temperature with X-rhod-1 AM (0.5 μM) and Fluo-3 AM (0.5 μM) (Molecular Probes, Invitrogen) prior to imaging in HEPES-buffered salt solution (HBSS) composed of (mM): 156 NaCl, 3 KCl, 2 MgSO4, 1.25 KH2PO4, 2 CaCl2, 10 glucose and 10 HEPES, pH adjusted to 7.35 with NaOH. Confocal images were obtained using a 510 CLSM (Zeiss, Thornwood, N.Y.) equipped with a META detection system and a […] oil-immersion objective. The 488 nm Argon laser line was used to excite fluo-3 fluorescence, which was measured using a bandpass filter from 505 to 550 nm. Illumination intensity was kept to a minimum (at 0.1-0.2% of laser output) to avoid phototoxicity and the pinhole was set to give an optical slice of 2 μm. […]

[2] = test system: primary cultures of mouse cortical neurons; assay: Mitochondrial respiration (Seahorse XF24, oxygen consumption rate); type: cell-based; details: 0.1 μM, FCCP 2 μM
Description: The effects of E, Q and E+Q on key parameters of mitochondrial respiration in primary cultures of mouse cortical neurons were measured using a Seahorse Bioscience XF24 Extracellular Flux Analyzer XF24 instrument. Oxygen consumption rate (OCR) in fmol/cell were normalized by counting viable cortical neurons at the end of each experiment. A seeding density of 80,000 neurons/well was sufficient to obtain a measurable basal OCR (4-6 fmol/min/cell) permitting both OCR induction and inhibition to be assessed. Mitochondrial function in cortical neurons was measured by the sequential injection of oligomycin (2 μM), FCCP (2 μM), rotenone (300 nM) and antimycin (5 μM) to control and OGD-exposed cultures treated with various concentrations of E, Q or E+Q (0.1 μM).

[3] = ten minutes after addition, fluo-3
[4] = sequential addition of 0.3 and 1 μM

Row | Compound | [Ca2+]c oscillations in a cortical neuron ([1]; 3 μg/ml (~10 μM) alone) | [Ca2+]m (mitochondrial) oscillations, x-rhod-1 ([1]; 3 μg/ml (~10 μM) alone) | [Ca2+]c oscillations in a cortical neuron ([1]; 3 μg/ml (~10 μM) alone, listed as epicatechin) | number of neurons displaying elevated [Ca2+]c / oscillations [1, 3] | number of neurons displaying elevated [Ca2+]c / oscillations ([1]; ten minutes after addition, fluo-3, listed as epicatechin) | number / frequency of [Ca2+]c oscillations in cortical neurons [1] | loss of spare respiratory capacity (SRC) after OGD [2] | number of neurons displaying [Ca2+]c oscillations ([1]; 1 μg/ml (~3 μM), ten minutes after addition, fluo-3) | number of neurons displaying [Ca2+]c oscillations ([1]; 1 μg/ml (~3 μM), ten minutes after addition, fluo-3, listed as quercetin) | number of neurons displaying elevated [Ca2+]c / oscillations ([1]; ten minutes after addition, fluo-3, listed as quercetin) | frequency of neuronal [Ca2+]c oscillations ([1]; 1 and 3 μg/ml (~3-10 μM), concentration-dependent) | mitochondrial membrane potential (TMRM) ([1]; 1 and 3 μg/ml (~3 and 10 μM)) | [Ca2+]m (mitochondrial) oscillations, x-rhod-1 ([1]; Q 3 μg/ml added after E 3 μg/ml) | number of neurons displaying [Ca2+]c oscillations ([1]; Q 3 μg/ml added after E 3 μg/ml, ten minutes later) | number of neurons displaying [Ca2+]c oscillations ([1]; Q 3 μg/ml added after E 3 μg/ml, ten minutes later, listed as quercetin) | [Ca2+]c oscillations (fluo-4) [1, 4] | basal [Ca2+]c [1, 4] | mitochondrial membrane potential (TMRM) [1, 4]
1 | Oc1cc(O)c2c(c1)O[C@H](c1ccc(O)c(O)c1)[C@H](O)C2 [E, (2R,3R)-2-(3,4-dihydroxyphenyl)-3,4-dihydro-2H-chromene-3,5,7-triol] | did not trigger | did not trigger | did not increase | no change | did not increase | enhanced the frequency | only partially reversed |  |  |  |  |  |  |  |  |  |  | 
2 | O=c1c(O)c(-c2ccc(O)c(O)c2)oc2cc(O)cc(O)c12 [Q] |  |  |  | further elevation |  | supra-additive increase | only partially reversed | small increase | increased | increased | increased the frequency | modestly elevated | induction | did increase | increased | concentration dependent stimulation | moderate rise | elevation
